These results are taken from PMC13194042, “GABAA receptor agonists modulate intracellular Ca^2+ levels in activated human CD4^+ T cells” (Frontiers in Immunology, 2026).

Like-named read-outs stand apart in the source and are kept apart here.

In assay [1] the test system is human resting CD4+ T cells. The experiment in a line: Calcium imaging in resting CD4+ T cells. The assay is classed as cell-based. Particulars: GABA 500 nM; n = 47 cells. The procedure:
Calcium imaging was performed as previously described ([12]). In brief, cells were loaded with 3 μM Fluo-8 AM calcium indicator (AAT Bioquest, Pleasanton, CA, USA) for 10 min at 37 °C and then seeded onto coverslips coated with 5% (3-aminopropyl)triethoxysilane (Sigma Aldrich) for 20 min at 37 °C. Calcium imaging was performed using a Zeiss LSM700 confocal microscope with a ×20 objective, capturing images at 0.5-s intervals. The recording solution was prepared by mixing two types of RPMI 1640 media, one containing 11 mM glucose (Gibco, Fisher Scientific, Sweden) and the other is glucose-free (Gibco, Fisher Scientific, Sweden). They were mixed in a 1:1 ratio, giving a final glucose concentration of 5.5 mM. The drugs were diluted in the recording solution and perfused into the chamber at specific concentrations using a peristaltic pump. After each drug application, the cells were perfused with the recording solution only to remove the drug. When the cells were again in the recording solution only, then the next test drug concentration was perfused into the chamber. […] The area around the individual cells was marked, and absolute fluorescence intensity values (F) were extracted using ZENBlue software. The relative intensity (F/Fmedian) for each cell was calculated for every recorded image and plotted against time. […]

The target in assay [2] is T1, GABAA receptors in activated human CD4+ T cells (Homo sapiens, UniProt P28476). Conditions: ref [12], cited from earlier work.
Assay [3] deals with T1, GABAA receptors in activated human CD4+ T cells. Kind of assay: Calcium imaging: agonist-evoked intracellular Ca2+ response in activated CD4+ T cells. The assay is classed as cell-based. The text has this:
Human blood samples and blood buffy coats were obtained from Uppsala University Hospital (Uppsala Akademiska sjukhuset), the protocol of which was approved by the Regional Research Ethics Committee in Uppsala (Dnr 2013/347). All individuals who donated blood were voluntarily recruited. Peripheral blood mononuclear cells (PBMCs) were isolated from blood samples using density-gradient centrifugation with Ficoll-Paque™ PLUS (Sigma Aldrich, Sweden). Subsequently, CD4^+ T lymphocytes were isolated from the PBMCs by negative selection, utilizing a human CD4^+ T lymphocyte isolation kit (Miltenyi Biotec, Germany) as per the manufacturer’s instructions. The freshly isolated CD4^+ T lymphocytes (1 million cells/mL) were suspended in human plasma-like medium (HPLM) (Gibco, Fisher Scientific, Sweden) containing 10% heat-inactivated dialyzed fetal bovine serum (Gibco, Fisher Scientific, Sweden), 100 μg/mL streptomycin, 100 U/mL penicillin (Gibco, Fisher Scientific, Sweden), and 5 μM β-mercaptoethanol (Gibco, Fisher Scientific, Sweden). The cells were activated in a 96-well plate (1 × 10^5–1.2 × 10^5 cells/well) with 3 μg/mL plate-bound anti-CD3 antibody (BD Biosciences, USA) for 72 h. Insulin (1 nM) was added at 48 h after the activation of the cells. The anti-CD3 concentration (5 μg/mL) used by Jacobs et al. ([14]) is similar to the one employed in this study. […] Akt-dependent signaling is activated by insulin at 48 h post-activation and is reminiscent of the anti-CD28-evoked signaling ([14]).
Calcium imaging was performed as previously described ([12]). In brief, cells were loaded with 3 μM Fluo-8 AM calcium indicator (AAT Bioquest, Pleasanton, CA, USA) for 10 min at 37 °C and then seeded onto coverslips coated with 5% (3-aminopropyl)triethoxysilane (Sigma Aldrich) for 20 min at 37 °C. Calcium imaging was performed using a Zeiss LSM700 confocal microscope with a ×20 objective, capturing images at 0.5-s intervals. The recording solution was prepared by mixing two types of RPMI 1640 media, one containing 11 mM glucose (Gibco, Fisher Scientific, Sweden) and the other is glucose-free (Gibco, Fisher Scientific, Sweden). They were mixed in a 1:1 ratio, giving a final glucose concentration of 5.5 mM. The drugs were diluted in the recording solution and perfused into the chamber at specific concentrations using a peristaltic pump. After each drug application, the cells were perfused with the recording solution only to remove the drug. When the cells were again in the recording solution only, then the next test drug concentration was perfused into the chamber. This was done so that the receptors/cells had always been in a drug-free solution before a drug application, thus avoiding potential cumulative drug effects such as run-down or desensitization. The area around the individual cells was marked, and absolute fluorescence intensity values (F) were extracted using ZENBlue software. The relative intensity (F/Fmedian) for each cell was calculated for every recorded image and plotted against time. The peak relative intensity during the drug application was considered the drug’s response. Data are presented for all cells as scatter plots and box and whisker plots.
Single-cell data presentation and agonist-Ca^2+-response data were fitted in GraphPad Prism 10 (GraphPad Software Inc., La Jolla, CA, USA). The data were fitted using nonlinear regression with a standard dose–response model:
(F/Fmedian)max=[agonist]/[agonist]+(EC50)agonist

Another assay addresses T2, KCa3.1 channels (Homo sapiens, UniProt O15554).
T2 construct: endogenous in cells
Kind of assay: Calcium imaging: block of GABA-activated Ca2+ signal by KCa3.1 blocker. The assay is classed as cell-based. Conditions: GABA 500 nM; TRAM-34 1 µM; average, n = 169 cells, N = 3 donors.

In the next assay the target is T3, CRAC channels (Homo sapiens, UniProt Q96D31).
T3 construct: endogenous in cells
The experiment in a line: Calcium imaging: block of GABA-mediated Ca2+ influx by CRAC channel inhibitor. The assay is classed as cell-based. Particulars: YM-58483 10 μM, acute application; n = 116 cells, N = 3 donors. The source says: Human blood samples and blood buffy coats were obtained from Uppsala University Hospital (Uppsala Akademiska sjukhuset), the protocol of which was approved by the Regional Research Ethics Committee in Uppsala (Dnr 2013/347). All individuals who donated blood were voluntarily recruited. Peripheral blood mononuclear cells (PBMCs) were isolated from blood samples using density-gradient centrifugation with Ficoll-Paque™ PLUS (Sigma Aldrich, Sweden). Subsequently, CD4^+ T lymphocytes were isolated from the PBMCs by negative selection, utilizing a human CD4^+ T lymphocyte isolation kit (Miltenyi Biotec, Germany) as per the manufacturer’s instructions. The freshly isolated CD4^+ T lymphocytes (1 million cells/mL) were suspended in human plasma-like medium (HPLM) (Gibco, Fisher Scientific, Sweden) containing 10% heat-inactivated dialyzed fetal bovine serum (Gibco, Fisher Scientific, Sweden), 100 μg/mL streptomycin, 100 U/mL penicillin (Gibco, Fisher Scientific, Sweden), and 5 μM β-mercaptoethanol (Gibco, Fisher Scientific, Sweden). […]
Calcium imaging was performed as previously described ([12]). […] The area around the individual cells was marked, and absolute fluorescence intensity values (F) were extracted using ZENBlue software. The relative intensity (F/Fmedian) for each cell was calculated for every recorded image and plotted against time. […]

The target in another assay is T4, CRAC channel current (Homo sapiens, UniProt Q96D31).
T4 construct: endogenous in cells
The experiment in a line: Whole-cell patch-clamp recording of CRAC-channel-mediated current. The assay is classed as cell-based.

The mark [4] stands for this setting: read-out: EC50, half-maximal activation concentration of the evoked Ca2+ signal; activated CD4+ T cells, 72 h post-activation, 1 nM insulin last 24 h, 5.5 mM glucose.

T1 sequence (P28476 21-465): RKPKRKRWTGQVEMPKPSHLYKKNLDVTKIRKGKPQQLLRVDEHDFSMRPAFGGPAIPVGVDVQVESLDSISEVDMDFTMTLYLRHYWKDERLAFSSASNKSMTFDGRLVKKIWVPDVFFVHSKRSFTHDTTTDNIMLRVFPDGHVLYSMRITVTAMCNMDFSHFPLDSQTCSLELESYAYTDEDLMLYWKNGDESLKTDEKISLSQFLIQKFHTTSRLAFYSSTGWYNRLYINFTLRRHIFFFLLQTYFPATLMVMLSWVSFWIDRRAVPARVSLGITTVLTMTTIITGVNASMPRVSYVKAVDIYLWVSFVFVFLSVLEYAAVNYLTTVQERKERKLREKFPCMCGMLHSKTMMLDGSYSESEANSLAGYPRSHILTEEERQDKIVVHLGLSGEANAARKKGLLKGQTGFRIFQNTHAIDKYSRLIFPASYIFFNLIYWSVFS
T4 sequence (Q96D31 whole entry): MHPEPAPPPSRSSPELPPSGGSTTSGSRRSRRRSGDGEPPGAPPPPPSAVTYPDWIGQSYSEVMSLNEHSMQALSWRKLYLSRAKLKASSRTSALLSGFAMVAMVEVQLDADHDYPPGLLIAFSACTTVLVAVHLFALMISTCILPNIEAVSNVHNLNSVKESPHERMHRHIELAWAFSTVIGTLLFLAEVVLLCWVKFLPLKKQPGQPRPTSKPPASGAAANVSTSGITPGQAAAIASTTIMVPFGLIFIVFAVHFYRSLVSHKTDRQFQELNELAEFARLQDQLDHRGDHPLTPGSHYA
T3 sequence (Q96D31 whole entry): as above
T2 sequence (O15554 whole entry): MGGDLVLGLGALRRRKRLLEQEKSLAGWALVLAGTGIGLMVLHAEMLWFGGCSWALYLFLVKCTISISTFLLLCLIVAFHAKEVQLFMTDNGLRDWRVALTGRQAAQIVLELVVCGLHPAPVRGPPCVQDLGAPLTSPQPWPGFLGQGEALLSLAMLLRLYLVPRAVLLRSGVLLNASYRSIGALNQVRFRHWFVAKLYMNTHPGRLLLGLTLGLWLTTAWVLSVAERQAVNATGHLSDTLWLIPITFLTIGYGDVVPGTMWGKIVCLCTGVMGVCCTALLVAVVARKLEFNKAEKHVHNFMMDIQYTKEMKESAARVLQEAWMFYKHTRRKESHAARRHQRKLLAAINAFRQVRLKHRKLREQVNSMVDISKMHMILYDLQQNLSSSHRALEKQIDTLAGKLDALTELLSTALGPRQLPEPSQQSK
Source text for CRAC channel current: To study the effect of YM58483 and picrotoxin (PTX) on CRAC-channel-mediated currents, the electrophysiological patch-clamp recordings were done in the whole-cell configuration. The extracellular solution was composed of the following (in mM): 155 NaCl, 4.5 KCl, 2 CaCl2, 1 MgCl2, 5 HEPES, and 5.6 glucose (pH 7.4, adjusted with NaOH). The pipette solution consisted of the following (in mM): 140 Cs methanesulfonate, 10 NaCl, 3 MgCl2, 10 HEPES, and 10 EGTA (pH 7.3, with CsOH). We further examined the recovery of currents during repeated drug applications to evaluate the level of run-down and desensitization, if present. In these experiments, in order to keep the intracellular chloride concentration intact, gramicidin (2.6 μg/mL) was used to obtain the perforated configuration. The extracellular solution (in mM) contained the following: 157 NaCl, 4.5 KCl, 0.5 CaCl2, 1 MgCl2, 5 HEPES, and 5.6 glucose (pH 7.4, adjusted with NaOH), and the pipette solution consisted of the following (mM): 149 KCl, 2 CaCl2, 1 MgCl2, 1 NaCl, 10 HEPES, and 5.6 glucose (pH 7.3, adjusted with KOH). […] Recordings were performed with the help of an Axopatch 200B amplifier, filtered at 2 kHz, and digitized at 10 kHz with an analog-to-digital converter. For the recordings, the Clampex 10.5 (Molecular Devices, San Jose, CA, USA) program was used. […]
Source text for KCa3.1 channels: Peripheral blood mononuclear cells (PBMCs) were isolated from blood samples using density-gradient centrifugation with Ficoll-Paque™ PLUS (Sigma Aldrich, Sweden). Subsequently, CD4^+ T lymphocytes were isolated from the PBMCs by negative selection, utilizing a human CD4^+ T lymphocyte isolation kit (Miltenyi Biotec, Germany) as per the manufacturer’s instructions. The freshly isolated CD4^+ T lymphocytes (1 million cells/mL) were suspended in human plasma-like medium (HPLM) (Gibco, Fisher Scientific, Sweden) containing 10% heat-inactivated dialyzed fetal bovine serum (Gibco, Fisher Scientific, Sweden), 100 μg/mL streptomycin, 100 U/mL penicillin (Gibco, Fisher Scientific, Sweden), and 5 μM β-mercaptoethanol (Gibco, Fisher Scientific, Sweden). The cells were activated in a 96-well plate (1 × 10^5–1.2 × 10^5 cells/well) with 3 μg/mL plate-bound anti-CD3 antibody (BD Biosciences, USA) for 72 h. […]
In brief, cells were loaded with 3 μM Fluo-8 AM calcium indicator (AAT Bioquest, Pleasanton, CA, USA) for 10 min at 37 °C and then seeded onto coverslips coated with 5% (3-aminopropyl)triethoxysilane (Sigma Aldrich) for 20 min at 37 °C. […] The area around the individual cells was marked, and absolute fluorescence intensity values (F) were extracted using ZENBlue software. The relative intensity (F/Fmedian) for each cell was calculated for every recorded image and plotted against time. […]

As to `NCCCC(=O)O` [GABA, γ-Aminobutyric acid], the “Ca2+ response in resting CD4+ T cells” value in assay [1] is listed as “does not evoke a calcium response”. For the same compound, the EC50 in assay [2] (read-out: EC50 of the GABA-evoked Ca2+ signal) is 0.005 nM.

For `NC/C=C/C(=O)O` [TACA, trans-4-aminocrotonic acid], the “EC50 for the Ca2+-evoked signal relative to GABA (fold higher)” value in assay [3] (TACA vs GABA) was “approximately 500 fold”. The “relative maximum Ca2+ signal (F/Fmedian)” value in assay [3] (in 500 nM TACA) was determined as 1.10. In assay [3] (setting [4]), the EC50 amounted to 2.2 nM.

With `Oc1noc2c1CCNC2` [THIP, 4,5,6,7-tetrahydroisoxazolo(5,4-c)pyridin-3-ol], the “relative maximum Ca2+ signal (F/Fmedian)” value in assay [3] (in 100 nM THIP) is 1.20. In assay [3] (setting [4]), the EC50 was 0.005 nM.

For the compound `Clc1ccccc1C(c1ccccc1)(c1ccccc1)n1cccn1` [TRAM-34], the “inhibition of GABA-induced increase in intracellular Ca2+ levels” value at KCa3.1 channels is listed as about 100%.

As for `Cc1nnsc1C(=O)Nc1ccc(-n2nc(C(F)(F)F)cc2C(F)(F)F)cc1` [YM58483], the “effect on GABA (500 nM)-evoked increase in intracellular Ca2+ levels” value at CRAC channels is reported as “inhibited”. For the same compound, the “reduction of the Ca2+ (CRAC channel) current” value at CRAC channel current (10 μM YM58483, whole-cell, voltage ramps, current normalized to control) is on record as “approximately 40%”.

On to `O=C(O)C1=CCNCC1` [isoguvacine], for which the EC50 in assay [3] (activated CD4+ T cells, 72 h post-activation, 1 nM insulin last 24 h, 5.5 mM glucose; read-out: EC50, half-maximal activation concentration of the evoked Ca2+ signal) turned out to be 54.4 nM. Further, the “relative maximum Ca2+ signal (F/Fmedian)” value in assay [3] (in 10 μM isoguvacine) turned out to be 1.13.

In the case of `NCc1cc(=O)[nH]o1` [muscimol], in assay [3] (at 1 μM muscimol), the “relative maximum Ca2+ signal (F/Fmedian)” value is “approximately 1.17”. For the same compound, in assay [3] (setting [4]), the EC50 was determined as 0.162 nM.

On to Picrotoxin, for which the “effect on the Ca2+ (CRAC channel) current” value on CRAC channel current (whole-cell, current at -80 mV normalized to control, n = 3 cells, N = 2 donors) is recorded as “did not reduce the Ca^2+ current”. Also, the “effect on muscimol (500 nM)- or TACA (500 nM)-evoked Ca2+ signals” value in assay [2] is “blocked”.
